From the supplement of paper PMC8960247
± gives the standard error.

Experiments:
[1] = test system: 621-102 (TSC2-deficient); assay: relative viability vs DMSO; higher = less cytotoxic; conditions: serum: 10% FBS, 72 h
[2] = test system: 621-103 (TSC2-rescued); assay: as above; conditions: serum: 10% FBS, 72 h
[3] = test system: UMB1949 (TSC2-deficient); assay: relative viability vs DMSO (fraction); higher = less cytotoxic; conditions: serum: 0.1% FBS, 72 h;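 further: renal angiomyolipoma cell lines screened in 384-well plates, viability normalized per plate to DMSO-treated cells, each plate carrying 50 nM rapamycin and 1 µM staurosporine controls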
[4] = test system: 621-102 (TSC2-deficient); assay: as above; conditions: serum: 0.1% FBS, 72 h

Structure (SMILES) | relative viability ([1]; 0.0001 µM) [%] | relative viability ([1]; 0.001 µM) [%] | relative viability ([1]; 0.01 µM) [%] | relative viability ([1]; 0.1 µM) [%] | relative viability ([1]; 1 µM) [%] | relative viability ([1]; 10 µM) [%] | relative viability ([2]; 0.0001 µM) [%] | relative viability ([2]; 0.001 µM) [%] | relative viability ([2]; 0.01 µM) [%] | relative viability ([2]; 0.1 µM) [%] | relative viability ([2]; 1 µM) [%] | relative viability ([2]; 10 µM) [%] | relative viability ([3]; 0.0128 nM) | relative viability ([3]; 0.064 nM) | relative viability ([3]; 0.32 nM) | relative viability ([3]; 1.6 nM) | relative viability ([3]; 8 nM) | relative viability ([3]; 40 nM) | relative viability ([3]; 200 nM) | relative viability ([3]; 1000 nM) | relative viability ([3]; 5000 nM) | relative viability ([4]; 0.0128 nM) | relative viability ([4]; 0.064 nM) | relative viability ([4]; 0.32 nM) | relative viability ([4]; 1.6 nM) | relative viability ([4]; 8 nM) | relative viability ([4]; 40 nM) | relative viability ([4]; 200 nM) | relative viability ([4]; 1000 nM) | relative viability ([4]; 5000 nM)
CNC(=O)c1cc(Oc2ccc(NC(=O)Nc3cc(C(C)(C)C)nn3-c3ccc4ncccc4c3)c(F)c2)ccn1 [DCC-2036] | 100 ± 5.8 | 97.14 ± 0.62 | 92.2 ± 4.6 | 87 ± 1.4 | 87.2 ± 2 | 9.801 ± 0.031 | 96.92 ± 0.83 | 98.2 ± 4.1 | 90.7 ± 1.8 | 69.51 ± 0.61 | 59.4 ± 0.26 | 9.01 ± 0.21 | 1.18 | 1.26 | 1.25 | 1.24 | 1.32 | 0.354 | 1.05 | 0.00706 | 0.00896 | 1.65 | 1.68 | 1.69 | 1.63 | 1.59 | 1.62 | 1.43 | 0.931 | 0.0177
CO[C@@H](C(=O)N1Cc2[nH]nc(NC(=O)c3ccc(N4CCN(C)CC4)cc3)c2C1)c1ccccc1 | 105 ± 3.9 | 101 ± 2.8 | 98 ± 8.5 | 91.8 ± 2.3 | 64.1 ± 0.79 | 31.6 ± 0.91 | 85.7 ± 2.3 | 90.8 ± 0.93 | 92.6 ± 5 | 89.5 ± 2.8 | 62.3 ± 1.8 | 11.5 ± 0.39 | 0.936 | 0.879 | 0.868 | 1.02 | 0.261 | 0.037 | 0.0271 | 0.00276 | 0.000648 | 0.925 | 0.972 | 0.92 | 0.989 | 0.816 | 0.325 | 0.0618 | 0.0757 | 0.00444
CO[C@H]1C[C@@H]2CC[C@@H](C)[C@@](O)(O2)C(=O)C(=O)N2CCCC[C@H]2C(=O)O[C@H]([C@H](C)C[C@@H]2CC[C@@H](OC(=O)C(C)(CO)CO)[C@H](OC)C2)CC(=O)[C@H](C)/C=C(\C)[C@@H](O)[C@@H](OC)C(=O)[C@H](C)C[C@H](C)/C=C/C=C/C=C/1C [Temsirolimus] | 40.82 ± 0.13 | 40.9 ± 3.7 | 36.1 ± 3.5 | 36.5 ± 3.5 | 41.1 ± 4.7 | 40.6 ± 4.3 | 84.1 ± 1.2 | 75.1 ± 3.1 | 78.7 ± 1.2 | 83.1 ± 3.1 | 76.9 ± 5 | 67.44 ± 0.43 | 0.901 | 0.874 | 0.846 | 0.894 | 0.91 | 0.816 | 0.629 | 0.415 | 0.379 | 0.696 | 0.68 | 0.714 | 0.666 | 0.524 | 0.422 | 0.263 | 0.274 | 0.171
Nc1ncnc2c1c(-c1cccc(OCc3ccccc3)c1)cn2C1CC(CN2CCCC2)C1 (stereo not given) [NVP-ADW742] | 74.8 ± 0.9 | 61.6 ± 3.1 | 69.9 ± 9.3 | 66.3 ± 5.1 | 77.3 ± 6 | 70.1 ± 4.5 | 98.4 ± 1 | 96 ± 1.5 | 94.3 ± 2.1 | 96.7 ± 2.4 | 92.3 ± 6 | 59.3 ± 0.83 | 1.02 | 1.04 | 1.13 | 1.14 | 1.07 | 1.09 | 0.995 | 0.273 | 0.0444 | 1.03 | 1.02 | 1.03 | 1.04 | 1.05 | 0.948 | 0.817 | 0.724 | 0.0714
O=C1Nc2ccccc2/C1=C1/Nc2ccccc2C1=O [Indirubin] | 97.2 ± 1.8 | 92.9 ± 2 | 91.53 ± 0.38 | 87.8 ± 2.7 | 92.2 ± 1.6 | 89.5 ± 2.1 | 86.1 ± 1.6 | 82.2 ± 3.9 | 83.7 ± 2.7 | 81.9 ± 4 | 79.1 ± 3.3 | 64 ± 2.4 | 0.983 | 1.03 | 1.02 | 0.972 | 0.941 | 0.964 | 0.87 | 0.811 | 0.749 | 1.08 | 0.927 | 1.06 | 0.906 | 0.922 | 0.996 | 0.841 | 0.652 | 0.833
CC1(C)CC(=O)c2c(C(F)(F)F)nn(-c3ccc(C(N)=O)c(N[C@H]4CC[C@H](O)CC4)c3)c2C1 [SNX-2112] | 60.2 ± 9.5 | 66.4 ± 8.2 | 45.4 ± 5.8 | 21.9 ± 0.44 | 18.9 ± 2.6 | 14.8 ± 0.6 | 112 ± 4 | 111 ± 1.2 | 84.4 ± 1.3 | 7.98 ± 0.57 | 6.9 ± 0.43 | 6.78 ± 0.53 | 0.771 | 0.292 | 0.334 | 0.0113 | 0.00964 | 0.00549 | 0.00248 | 0.00255 | 0.00394 | 0.829 | 0.471 | 0.381 | 0.19 | 0.232 | 0.0887 | 0.0644 | 0.0224 | 0.0194
CCN1CCN(Cc2ccc(-c3cc4c(N[C@H](C)c5ccccc5)ncnc4[nH]3)cc2)CC1 [AEE788] | 106 ± 2.1 | 107.3 ± 1 | 106 ± 4.4 | 104 ± 1.6 | 100 ± 3.6 | 36.7 ± 12 | 94.8 ± 1.2 | 107.1 ± 0.38 | 103.4 ± 0.79 | 102 ± 3.6 | 100 ± 3.8 | 10.7 ± 1 | 1.02 | 0.971 | 1 | 1.07 | 0.964 | 1.01 | 0.767 | 0.305 | 0.00689 | 1.06 | 0.968 | 1.01 | 0.786 | 0.612 | 0.64 | 0.156 | 0.034 | 0.00903
